System: atrial refractory period
Experiment: Atrial refractory period in the anesthetized pig (electrical stimulation S1/S2, left atrium)
Type: in vivo, pig (male Landrace)
Description: The study was carried out on male Landrace pigs (20-25 kg). Anesthesia was maintained with isoflurane (0.5-3% of lung tidal volume). Number of respirations and tidal volume were adjusted so as to maintain blood gases within physiological limits. A left lateral thoracotomy was performed in the fourth intercostal space and the pericardium was opened. Polyethylene-filled catheters were introduced into the nearest thoracic artery to measure arterial pressure during the experiment and in the left saphenous vein to administer the active products or a control carrier. An atrial electrocardiogram (ECG) was continuously recorded, with three electrodes placed and sutured in the epicardium and the fourth serving as mass and placed in the thoracic muscles. Thus, the ECG provides information on atrial activity. Two bipolar electrodes were also placed in the left atrium at an interval of 0.3 cm and were maintained by fishing hooks. Electrical stimulations were carried out by a stimulator (DS 8000, WPI). […] The panthenyl docosahexaenoate of formula A (quantity: 10+10 mg/kg, n=4) was administered in the form of a bolus over 1 minute and then allowed to diffuse for 40 minutes. […]

CC/C=C\C/C=C\C/C=C\C/C=C\C/C=C\C/C=C\CCC(=O)OCCCNC(=O)C(O)C(C)(C)CO (stereo in doubt) [panthenyl docosahexaenoate of formula A, 3-[(2R)-2,4-dihydroxy-3,3-dimethylbutanamido]propyl(4Z,7Z,10Z,13Z,16Z,19Z)-docosa-4,7,10,13,16,19-hexaenoate]
increase in atrial refractory periods (ARPs) (intravenous 10 mg/kg + 10 mg/kg (bolus over 1 minute, then 40 minutes), anesthetized male Landrace pigs, n=4, p<0.001, placebo -4±3 ms): 19 ± 2 ms | activity on atrial refractory period compared with the panthenol diester (same formulation and administration, anesthetized pigs, FIG. 1): significantly more active than the panthenol diester
